Source: patent EP4610270A1, “NOVEL ANTIMICROBIAL PEPTIDE AND PHARMACEUTICAL COMPOSITION THEREOF” (Qingdao Sensheng Biopharmaceutical Technology Co., Ltd, priority 2022, dated 2024)

How the values were obtained:
[1] = tested on: Escherichia coli 25922 (ATCC 25922, E. coli 25922); assay: Antimicrobial activity by liquid antimicrobial / turbidimetric method (OD540, microplate reader); format: cell-based; conditions: E. coli drug sensitive strain; FIG. 1
Experimental: (§1) The materials of Gram negative bacteria and Gram positive bacteria used in the embodiments of the present disclosure include Gram negative bacteria Escherichia coli strain Escherichia coli 25922 (ATCC 25922, E. coli 25922) and Gram positive bacteria Staphylococcus aureus strain Staphylococcus aureus 25923 (ATCC 25923, S. aureus 25923). […] 100 µl of the sample was immediately taken and placed in a microplate reader to measure its OD540, which was recorded as OD 0h. Then the sample was placed in a 37°C constant temperature incubator for cultivation, 100 µl of the sample was taken every 1 h, and the OD540 of each centrifuge tube was measured. Based on the changes in absorbance, the growth of bacteria could be determined, and the antimicrobial activity and minimum inhibitory concentration (MIC) of the polypeptide could be determined. […] 100 µl of the sample was immediately taken and placed in a microplate reader to measure its OD540, which was record as OD 0h. Then the sample was placed in a 37°C constant temperature incubator for cultivation, 100 µl of the sample was taken every 1 h, and the OD540 of each centrifuge tube was measured once.

[2] = tested on: Staphylococcus aureus 25923 (ATCC 25923, S. aureus 25923); assay: as above; format: cell-based; conditions: S. aureus drug sensitive strain; FIG. 2
Experimental: as §1

[3] = tested on: Human red blood cells (RBC); format: cell-based
Experimental: Human red blood cells (RBC) were used to detect the hemolytic activity of Ac-SH-17. All subjects provided written informed consent. The obtained healthy human blood was placed in an EDTA anticoagulant tube. Red blood cells were collected by centrifugation and suspended in PBS to a concentration of 4% (v/v). An equal portion of 200 µl red blood cell suspension was mixed with 200 µl of Ac-SH-17 solution at different concentrations (12.5, 25, 50, 100, and 200 µg/ml). After incubation at 37°C, the mixture was centrifuged […], and the supernatant was collected and added to a 96-well plate. Red blood cells incubated with PBS, BSA solution (100 µg/ml), or 0.1% Triton X-100 solution were used as blank control, negative control, and positive control, respectively. The absorbance was measured at 540 nm using a microplate reader. Three parallel samples were set up for each experiment, and the experiment was repeated at least three times. The results were analyzed for significant differences by a two-way ANOVA method, with p<0.05 indicating significant differences. Table 3.1 Hemolysis analysis

[4] = tested on: RAW264.7 mouse macrophage cell line; assay: Anti-inflammatory experiment: NO release after LPS stimulation (Griess); format: cell-based; conditions: antimicrobial peptide 80 µM; 1 µg/ml LPS stimulation; FIG. 4
Excerpt: NO is a diffusible and membrane permeable small molecule obtained during the oxidation of L-arginine by NOS. NO was associated with many physiological reactions in organisms. […] But at low concentrations, NO could act as a signal to positively and negatively regulate innate and acquired immunity. Thus, by detecting the concentration of NO released by cells, the inflammatory response of cells could be detected.
The RAW264.7 mouse macrophage cell line was used as the experimental material and cultured in a DMEM high glucose medium containing FBS (10%) and penicillin-streptomycin dual antibody (100 U/ml). The RAW264.7 mouse macrophage cell line was used for experiments when the cell state was stable, the shape was full, and the edges were transparent.
• 1. The culture medium was removed from the cells and gently purged twice with PBS at room temperature to remove excess culture medium. After digestion with 0.25% trypsin for 3 min, the culture bottle was gently tapped to induce cell detachment, and then the culture medium was added to terminate digestion. The culture bottle was repeatedly blown and beaten to make the cells uniform. • 2. […]
4.2 In this experiment, NO was detected by the method provided in the total nitric oxide content determination kit, and improvements were made. […]

[5] = Antisepsis experiment: survival in fecal homogenate sepsis model; format: in vivo, SD rats; conditions: intraperitoneal 0.5 ml of 80 µM; within 24 h; compared to the model group; FIG. 5
Experimental: Sepsis refers to a systemic inflammatory response syndrome caused by infectious factors. A rat model of intestinal sepsis was established by injecting rat fecal homogenate into the abdominal cavity of model rats, followed by intraperitoneal injection of antimicrobial peptides to observe the survival rate of mice within 10-48 h, in order to evaluate the therapeutic effect of antimicrobial peptides on sepsis in mice.
60 SD rats were randomly divided into 6 groups by a random number table method, i.e., model group 1, model group 2, model group 3, model group 4, model group 5, and blank group, with 10 rats in each group. These 6 groups of rats were weighed and numbered in sequence.
After 1 week of adaptive feeding, fresh formed feces were collected from these 60 SD rats. After weighing the rat feces, an appropriate amount of physiological saline was added to it, and then the mixture was placed in a homogenizer for thorough grinding to prepare a rat feces homogenate at the concentration of 10%. The rat fecal homogenate was centrifuged at 3000 rpm for 5 min to obtain the supernatant, and then a syringe was used to suck out an appropriate amount of the supernatant for later use.
Before modeling, rats in model groups 1-5 were fasted for 12 hours, and then a 10% concentration of rat feces homogenate supernatant was injected intraperitoneally at a dose of 1 ml/200 g. […]

In the case of “Ac-SRMKKWAKIIEKWRKWH-NH2 [Ac-SH-17, Ac-SRMKKWAKIIEKWRKWH-NH2]”, the antimicrobial activity [1] is reported as “exhibited antimicrobial activity”, the antimicrobial activity [2] is reported as “exhibited antimicrobial activity” and the “OD Value” [3] is reported as 0.061±0.013. For the same substance, the hemolytic effect [3] was “does not have significant hemolytic effect”, the “Hemolysis Ratio (%)” value ([3]; red cells of human) was 4.40% and the “inhibition of the release of NO” value [4] was “significantly inhibited the release of NO”. The “release concentration of NO” value [4] was “substantially the same as that of the blank control” and the survival rate [5] was “significantly improved the survival rate”.
